Laboratory results: PMC5657837 (Journal of Insect Science, 2014)

Test system: midgut α-amylase
Test: α-amylase activity of larval midgut homogenate
Type: biochemical, Mythimna separata

## O=C1CCC(=O)N1Br [NBS, N-bromosuccinimide]
  Ki: 2530 nM
